# Reference: US11154551B2, “HDAC1,2 inhibitors and methods of using the same” (UNIVERSITY OF UTAH RESEARCH FOUNDATION, priority 2014, dated 2021)
# Entries after “also recorded” stand apart in the source; their conditions may differ.
# Key:
# [1] = tested on: Hdac1,2; assay: in vitro enzyme assays, IC50 determination (FIG. 17A); format: biochemical
# Procedure: (A). For IC50 determination, recombinant HDAC enzymes were treated with HDAC1,2 or HDAC3 inhibitors in in vitro HDAC assays. (B). Western blots for H3K23ac using extracts from Pre-B-ALL SupB15 cells treated with increasing dose of HDAC1,2 inhibitor (ACY1035). (C). Hdac1^FI/FI, 2^FI/FI cells were infected with Ad-Cre virus to delete HDAC1 and HDAC2 (HDAC1,2 null) or uninfected (WT). (D). Hdac3^FI/FI cells were either uninfected (WT) or infected with Ad-Cre virus to delete Hdac3. HDAC3-null cells were treated with DMSO or the HDAC1,2 selective inhibitor.
# We have determined 2 μM (FIG. 17B) as the minimum dose for the ACY compounds, respectively, that when added to cells increased H3K23ac (a mark targeted by Hdac1,2 but not Hdac3).
# [2] = tested on: SupB15 (Ph+PreB-ALL) cells; assay: γH2AX immunofluorescence; format: cell-based, human; conditions: 2 μM, 48 hours
# Procedure: SupB15 cells were treated with 2 μM ACY1035, ACY1071, ACY957, or solvent (DMSO) for 48 hours. (A) Immunofluorescence with γH2AX was performed on treated SupB15 cells. The number of γH2AX foci was counted in around 100 cells for each treatment and classified into cells with no foci, 1-5, 6-10, and greater than 10 foci. (B) SupB15 cells treated with DMSO or ACY1035 for 48 hours were tested via neutral comet assay to measure the amount of double-strand breaks (DSBs), indicated by the tail.
# BCR-ABL promotes DNA repair to prevent DNA damage accumulation in Philadelphia chromosome-positive (Ph+) leukemia cells. To examine the effect of various HDAC1,2-selective inhibitors on DNA repair and DNA damage response in Pre-B-ALL cells that express BCR-ABL, SupB15 (Ph+PreB-ALL) cells were treated with 2 μM ACY1035 or 2 μM ACY1071 or 2 μM ACY957 for 48 hours.
# [3] = tested on: SUDHL4 and Karpas-422 cells; assay: γH2AX foci formation by immunofluorescence; format: cell-based, human; conditions: 48 h; 2 μM ACY-957, 0.5 μM DZNEP, 0.5 μM GSK126
# Procedure: (§1) The percentage of cells with 6 or greater γH2AX foci were counted in three independent experiments and at least 100 cells were counted in each experiment. […] Histones were purified using trichloroacetic acid extraction protocol (see Example 1). Western blot analysis was done with anti-γH2AX and histone H2AX served as the loading control. […] Following DMSO or ACY957 treatment, cells were exposed to a 5Gy dose of ionizing radiation and allowed to recover for 30 minutes prior to chromatin extraction. Western blot analysis was done with anti-γH2AX where total histone H2AX served as a loading control. (D): Karpas-422 cells were micro-irradiated with laser and allowed to recover for 15 minutes before fixation and immunofluorescence staining with anti-γH2AX, anti-HDAC1 and anti-HDAC2 antibodies was done.
# Immunofluorescence. Cells were fixed in either 10% formalin or methanol-acetone (1:1) for 10 min at −20*C. The cells were then permeabilized with 0.5% Triton-X-100 in PBS for 5 min at room temperature (RT), blocked in 10% normal goat serum (Sigma) for 30 min and stained with primary antibody for 1 h at RT. Cells were incubated with secondary antibody (anti-mouse or anti-rabbit IgG, Alexa Fluor 488/546) at a 1:600 dilution for 45 min at RT, and counterstained with Hoechst 33342 (Sigma) at 1:1000 dilution to visualize the nuclei. Images were captured using Zeiss Axioskop mot plus microscope with a 40× lens and analyzed using the AxioVision software.
# [4] = tested on: Karpas-422 cells; assay: propidium-iodide / BrdU-PI cell cycle analysis; format: cell-based, human; conditions: for progression through the cell cycle: 24 h; for progression through the cell cycle / cell cycle / sub-G1 (dead cells): 2 μM ACY-957, 0.5 μM DZNEP, 0.5 μM GSK126
# Procedure: (§2) (B): Quantitation of the cell cycle data in (A), compiled from three independent analyses. The graphs plotted the average percentage of cells in each phase of the cell cycle. […] (C): FACS analysis following BrdU-PI staining of Karpas-422 and SUDHL4 cells was performed following a 48 h or 72 h treatment with ACY-957.
# Cell cycle analysis of propidium-iodide stained cells was performed with fixed cells. […] (C): FACS analysis following BrdU-PI staining of Karpas-422 and SUDHL4 cells was performed following a treatment with 2 μM ACY-957, 50 nM doxorubicin or both for 48 h.
# (§3) (B): Quantitation of the cell cycle analysis performed in (A). Data from three independent cell cycle analyses were compiled and average percentage cells with standard errors were shown in this panel.
# (§4) Propidium-iodide Cell Cycle Analysis.
# (§5) Since these DLBCL cells expressed a hyperactive form of EZH2, pharmacological inhibition of EZH2 activity was considered a therapeutic strategy. […] GSK126 was a S-adenosyl-methionine-competitive inhibitor of EZH2 methyltransferase activity, and DZNep was a S-adenosylhomocysteine hydrolase inhibitor that disrupted the components of the PRC2 complex, thereby causing reduced chromatin-associated EZH2 levels.
# To test this possibility, cell cycle analysis following treatment of Karpas-422 with ACY-957, doxorubicin, or ACY-957 in combination with doxorubicin was performed.
# [5] = tested on: Karpas-422 and SUDHL4 cells; assay: Western blot of chromatin extracts for H3K27ac and H3K27me3; format: cell-based, human; conditions: 48 h, chromatin extracts
# Procedure: Western blot analysis was done with anti-H3K27ac, H3K27me3 or EZH2 and histone H3 served as a loading control.
# Following DMSO or ACY-957 treatment, cells were exposed to a 5Gy dose of ionizing radiation and allowed to recover for 30 minutes prior to chromatin extraction. Western blots were performed with anti-H3K27ac or anti-H3K27me3 with histone H3 serving as a loading control. (B-E): Karpas-422, SUDHL4, WSU-DLCL2 and HeLa cells were laser micro-irradiated and allowed to recover for 15 minutes before fixation and immunofluorescence staining with anti-γH2AX and anti-H3K27me3. Subsequently, the percentage of cells with H3K27me3 lines that co-localized with γH2AX were counted. Merge is the overlay of γH2AX and H3K27me3 pictures. (F-I): At least 100 cells with γH2AX lines were counted in each experiment. The quantitation shown was the average calculated from independent experiments+/−standard error. Quantitation from five, seven, five and six independent experiments performed in Karpas-422, SUDHL4, WSU-DLCL2 and HeLa cells, respectively, was used in the graph shown in this figure. (J): Karpas-422 cells were micro-irradiated with a laser and allowed to recover for 15 minutes before fixation and immunofluorescence staining was performed with anti-γH2AX and anti-H3K27ac.
# Protein Preparation and Western Blot Analysis.
# The histone H3K27 residue was subjected to reversible acetylation and methylation. […] We also treated cells with the second EZH2 inhibitor, GSK126 alone, or combined with ACY-957 (ACY-957+GSK126). […] Cells were treated for 48 h prior to preparing chromatin extracts for Western analysis using antibodies recognizing H3K27ac or H3K27me3.
# We first examined whether inhibiting HDAC1,2 activity induced any change in global H3K27ac or H3K27me3 on chromatin following DNA damage and during DNA repair. SUDHL4 or Karpas-422 cells with or without exposure to ionizing radiation (IR) were initially treated with DMSO or ACY-957 for 48 hr. Chromatin extracts were prepared from these cells following a 30 min recovery period (the repair phase) and changes in histone modifications were examined by Western blotting.
# [6] = tested on: SUDHL4 cells; assay: propidium-iodide / BrdU-PI cell cycle analysis; format: cell-based, human; conditions: for progression through the cell cycle: 24 h; for progression through the cell cycle / cell cycle / G1 arrest and sub-G1: 2 μM ACY-957, 0.5 μM DZNEP, 0.5 μM GSK126; for cell cycle / G1 arrest and sub-G1: 72 h
# Procedure: as §2, §3, §4, §5
# [7] = tested on: SUDHL4 and Karpas-422 cells; assay: Western blot of γH2AX on chromatin, with or without ionizing radiation; format: cell-based, human; conditions: 48 hr, Western
# Procedure: as §1
# [8] = tested on: Karpas-422 cells; conditions: publically available RNA seq data set of GSK126 treated cells; cited from earlier work
# [9] = tested on: Hdac1,2 or Hdac3 knockout cell lines; assay: Western blot of H4K5ac in conditional Hdac1,2 or Hdac3 knockout cells; format: cell-based, mouse
# Procedure: For IC50 determination, recombinant HDAC enzymes were treated with HDAC1,2 or HDAC3 inhibitors in in vitro HDAC assays. (B). Western blots for H3K23ac using extracts from Pre-B-ALL SupB15 cells treated with increasing dose of HDAC1,2 inhibitor (ACY1035). (C). Hdac1^FI/FI, 2^FI/FI cells were infected with Ad-Cre virus to delete HDAC1 and HDAC2 (HDAC1,2 null) or uninfected (WT). (D). Hdac3^FI/FI cells were either uninfected (WT) or infected with Ad-Cre virus to delete Hdac3.
# [10] = tested on: Karpas-422 and SUDHL4 cells; assay: Western blot of histone acetylation marks in whole cell lysates; conditions: 2 μM, 24 hours, vs DMSO
# Procedure: Compounds were diluted in DMSO to 50 fold the final concentration and a ten point three fold dilution series was made. The compounds were diluted in assay buffer (50 mM HEPES, pH 7.4, 100 mM KCl, 0.001% Tween-20, 0.05% BSA, 20 μM tris(2-carboxyethyl)phosphine) to 6 fold their final concentration. The HDAC enzymes (purchased from BPS Biosciences) were diluted to 1.5 fold their final concentration in assay buffer. The tripeptide substrate (synthesized in house) and trypsin at 0.05 μM final concentration were diluted in assay buffer at 6 fold their final concentration. Five μl compounds and 20 μl of enzyme were added to wells of a black, opaque 384 well plate in duplicate. Enzyme and compound were incubated together at room temperature for 10 minutes. Five μl of substrate was added to each well, the plate was shaken for 60 seconds and placed into a Victor 2 microtiter plate reader. The development of fluorescence was monitored for 60 min and the linear rate of the reaction was calculated. The IC50 was determined using Graph Pad Prism by a four parameter curve fit.
Structure (SMILES),cells with γH2AX foci [3],progression through the cell cycle [4],cell cycle / sub-G1 (dead cells) ([4]; 48 h),cell cycle / sub-G1 (dead cells) ([4]; 72 h),global H3K27me3 levels [5],progression through the cell cycle [6],cell cycle / G1 arrest and sub-G1 [6],further results
"Nc1ccc(-c2ccncc2)cc1NC(=O)c1ccc2c(c1)cc(C1CC1)n2CCN1CCOCC1 [ACY-1071, N-(2-amino-5-(pyridin-4-yl)phenyl)-2-cyclopropyl-1-(2-morpholinoethyl)-1H-indole-5-carboxamide]",,,,,,,,"inhibition of Hdac1,2 activities compared to Hdac3 (IC50 values) [1]: very selectively; DNA damage, quantitation of γH2AX foci [2]: statistically significant increase in DNA damage"
"Nc1nccc2c1ncn2C1C=C(CO)C(O)C1O (stereo not shown) [DZNep, reference compound]",significant increase in the number of cells with greater than six γH2AX foci,did not affect their progression through the cell cycle,modest increase in the number of dead Karpas-422 cells,larger increase in the number of dead Karpas-422 cells,without reducing global H3K27me3 levels,did not affect their progression through the cell cycle,modest increase in dead/sub-G1 SUDHL4 cells,chromatin associated γH2AX [7]: greater increase in γH2AX levels on chromatin compared to GSK126
"CC[C@H](C)n1cc(C)c2c(C(=O)NCc3c(C)cc(C)[nH]c3=O)cc(-c3ccc(N4CCNCC4)nc3)cc21 [GSK126, reference compound]",slight increase in γH2AX foci,did not affect their progression through the cell cycle,did not cause any change in the progression,did not result in any defect in the cell cycle progression and/or survival,decrease in global H3K27me3 levels; also recorded: significant decrease in H3K27me3,did not affect their progression through the cell cycle,did not result in any defect in the cell cycle progression and/or survival,"incubation required to decrease the viability [4]: 7 days; cell cycle / G1 arrest ([6]; 48 h, 2 μM ACY-957, 0.5 μM GSK126): did not cause any change in the progression; BLIMP1 expression increase [8]: 2.4 fold"
"Nc1ccccc1NC(=O)c1ccc(CNC(=O)OCc2cccnc2)cc1 [MS275, reference compound]",,,,,,,,"H4K5ac compared with deletion of Hdac1,2 [9]: greater increase in H4K5ac than the deletion of just Hdac1,2"
"O=C(CCCCCCC(=O)Nc1ccccc1)NO [SAHA, Vorinostat, reference compound]",,,,,,,,H3K23ac levels [10]: increase in H3K23ac
